Assay results published in PMC9502272, “A Metabolomics Approach for Predicting OATP1B-Type Transporter-Mediated Drug–Drug Interaction Liabilities” (Pharmaceutics, 2022).

Assays:
human OATP1B1 = test: Baseline plasma CDCA-24G in Oatp1a/1b(−/−) mice with transgenic hepatic expression of OATP1B1 (OATP1B1(tg)); format: in vivo, mouse; settings: range stated jointly for OATP1B1(tg) and OATP1B3(tg)
Procedure: Plasma concentrations of levels of CDCA-24G and glycochenodeoxycholate-3-sulfate (GCDCA-S) were determined using LC-MS/MS using a Vanquish UHPLC coupled with a Quantiva triple quadrupole mass spectrometer (Thermo Fisher Scientific, Waltham, MA, USA). An Accucore aQ column (50 × 2.1 mm, dp = 2.6 μm; Thermo Fisher Scientific) was protected by a C18 AQUASIL guard cartridge (2.1 mm × 10 mm, dp = 3 μm; Thermo Fisher Scientific). The injection volume of sample was 5.0 μL. The temperature of the autosampler rack was 4 °C, and the temperature of the column was maintained at 20 °C. The mobile phase was composed of solvent A (2 mmol ammonium acetate in water) and solvent B (100% methanol), and the total run time was 4.6 min. The gradient conditions were as follows: 0–0.5 min, 45% B; 0.5–2.0 min, 45 to 90%, 2.0–4.0 min, 90% B; 4.0–4.6 min, 45% B, delivered at a flow rate of 0.4 mL/min. […] Precursor molecular ions, and product ions were recorded for the confirmation and detection of GCDCA-S (528.4 > 448.3) and CDCA-24G (567.4 > 391.1), using [^2H5]-GCDCA-S (535.5 > 453.3) and [^2H5]-CDCA-24G (572.5 > 396.1) as respective internal standards. The lower limit of quantitation (LLOQ) for both analytes was determined to be 0.5 ng/mL. […]

OATP1B1 = target: T1, OATP1B1 (Homo sapiens, UniProt Q9Y6L6); test: Uptake in HEK293 cells overexpressing OATP1B1; format: cell-based; settings: HEK293 cells overexpressing OATP1B1, 5 min uptake, vs empty vector
T1 construct: expressed in transfected cells; host or cells: HEK293 (ATCC)
T1 sequence (Q9Y6L6 1-691): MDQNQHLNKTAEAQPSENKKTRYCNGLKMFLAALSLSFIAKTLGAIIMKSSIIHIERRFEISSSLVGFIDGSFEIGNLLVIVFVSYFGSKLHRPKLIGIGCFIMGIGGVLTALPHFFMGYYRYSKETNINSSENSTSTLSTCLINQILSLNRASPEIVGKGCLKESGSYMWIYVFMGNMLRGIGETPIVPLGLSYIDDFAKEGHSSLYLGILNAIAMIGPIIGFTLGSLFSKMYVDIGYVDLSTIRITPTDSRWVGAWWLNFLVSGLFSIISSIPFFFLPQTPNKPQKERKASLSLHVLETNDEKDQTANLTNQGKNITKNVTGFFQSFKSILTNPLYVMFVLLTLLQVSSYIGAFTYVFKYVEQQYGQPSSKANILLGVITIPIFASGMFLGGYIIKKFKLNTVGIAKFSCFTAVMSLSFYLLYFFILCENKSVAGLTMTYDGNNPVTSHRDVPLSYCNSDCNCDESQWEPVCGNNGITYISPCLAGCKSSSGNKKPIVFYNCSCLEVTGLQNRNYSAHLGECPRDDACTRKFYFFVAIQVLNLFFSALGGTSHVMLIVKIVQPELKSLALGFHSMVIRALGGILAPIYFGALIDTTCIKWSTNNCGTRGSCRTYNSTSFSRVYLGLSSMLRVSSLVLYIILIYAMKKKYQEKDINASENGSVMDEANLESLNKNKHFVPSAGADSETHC
Procedure: The generation of human embryonic kidney (HEK293) cells (ATCC) engineered to overexpress OATP1B1, Oatp1b2, or empty vector, the cell culture conditions, and general details of uptake studies have been reported in detail elsewhere. Briefly, cells were grown to 90% confluence on poly-lysine coated multi-well plates. […] The pre-treatment medium was rinsed off with warm 1× PBS followed by the addition of the test compounds for an incubation period of 5 min. After incubation, transport was halted by aspirating the medium and rinsing the cells three times with ice-cold 1× PBS. After lysing cells with 0.1 N HCl, and subsequent adding methanol, 20 μL aliquots were mixed with 60 μL of acetonitrile containing relevant internal standards. After vortex mixing, the mixtures were centrifuged, and the supernatants were used for quantitative analysis by LC-MS/MS. Drug uptake results were normalized to total protein content and then to data obtained in cells carrying an empty vector plasmid, which was set to 100%.

Oatp1b2 = target: T2, Oatp1b2 (Mus musculus, UniProt Q9JJL3); test: Untargeted metabolomics of plasma from untreated wild-type and Oatp1b2(−/−) mice
T2 sequence (Q9JJL3 1-689): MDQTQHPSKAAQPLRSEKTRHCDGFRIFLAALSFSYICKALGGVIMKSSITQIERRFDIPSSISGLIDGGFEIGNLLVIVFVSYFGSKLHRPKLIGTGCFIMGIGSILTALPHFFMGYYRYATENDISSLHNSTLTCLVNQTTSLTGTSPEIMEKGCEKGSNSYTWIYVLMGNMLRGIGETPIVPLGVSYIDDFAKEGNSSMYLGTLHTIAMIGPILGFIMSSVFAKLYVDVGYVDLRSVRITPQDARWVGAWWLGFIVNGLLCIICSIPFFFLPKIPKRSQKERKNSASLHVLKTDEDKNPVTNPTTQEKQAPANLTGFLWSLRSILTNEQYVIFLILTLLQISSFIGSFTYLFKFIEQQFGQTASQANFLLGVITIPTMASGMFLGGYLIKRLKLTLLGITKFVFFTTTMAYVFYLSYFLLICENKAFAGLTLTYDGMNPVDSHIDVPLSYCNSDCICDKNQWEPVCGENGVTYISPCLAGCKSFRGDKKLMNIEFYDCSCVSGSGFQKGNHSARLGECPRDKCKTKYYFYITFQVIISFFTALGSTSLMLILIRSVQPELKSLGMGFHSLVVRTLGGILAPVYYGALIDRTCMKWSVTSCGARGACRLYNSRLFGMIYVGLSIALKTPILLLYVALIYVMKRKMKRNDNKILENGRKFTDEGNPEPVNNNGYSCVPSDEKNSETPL
Procedure: For all experiments, age- and sex-matched mice (8–12 weeks old) were used. […] Mice with a deficiency of Oatp1b2 (Oatp1b2(−/−) mice), the single murine orthologue of OATP1B1 and OATP1B3 in humans, on a DBA/1LacJ background were kindly provided by Drs. Richard B. Kim (Western University, London, Ontario, Canada) and Jeffrey L. Stock (Pfizer, Groton, CT, USA).
Plasma samples from untreated wild-type mice and Oatp1b2(−/−) mice were analyzed for structurally named and unknown molecules using a non-targeted semi-quantitative liquid chromatography-tandem mass spectrometry (LC-MS/MS) and gas chromatography-mass spectrometry platforms (Metabolon, Durham, NC, USA). Compounds were identified by comparison with library entries of purified standards or recurrent unknown entities.

C[C@H](CCC(=O)O[C@@H]1O[C@H](C(=O)O)[C@@H](O)[C@H](O)[C@H]1O)[C@H]1CC[C@H]2[C@@H]3[C@H](O)C[C@@H]4C[C@H](O)CC[C@]4(C)[C@H]3CC[C@]12C [CDCA-24G, chenodeoxycholate-24-glucuronide]
Baseline CDCA-24G level, fold lower than in Oatp1a/1b(−/−) mice (human OATP1B1): 5- to 7 fold | Transport by human OATP1B-type transporter (OATP1B1): efficiently transported | Increase of plasma level in Oatp1b2(−/−) mice vs. wild-type mice (Oatp1b2; based on semi-quantitative analysis): ≈ 98 fold | Fold of Change KO/WT (Oatp1b2; plasma of untreated Oatp1b2-deficient (KO) vs wild-type (WT) mice, semi-quantitative, positive = higher in KO, n = 6 per group): 97.9 | Mean value KO (Oatp1b2; plasma of untreated Oatp1b2-deficient mice, raw area counts rescaled to median = 1): 1.15 | Mean value WT (Oatp1b2; plasma of untreated wild-type mice, raw area counts rescaled to median = 1): .0120
